Data as given in patent US20240118280A1 (priority 2022, published 2024).
“Also recorded” adds a separate entry of the source.

Molecular target: T1, human EGFR kinase (Homo sapiens, UniProt P00533)
T1 construct: The EGFR kinase domain is incubated with Ibrutinib-yne or a DMSO control at 37° C. for 1 hour; made in house
Assay: Activity-based protein fingerprinting: covalent labelling of EGFR kinase by chemical probe (PAGE, fluorescent imaging, LC-MS)
Format: binding
Protocol: The EGFR kinase domain is incubated with Ibrutinib-yne or a DMSO control at 37° C. for 1 hour. The EGFR kinase domain bound to Ibrutinib-yne is exposed to cysteine reduction and capping using TCEP and chloroacetamide at 37° C. for 1 hour. The product is desalted with a 7 kDa zeba column and exposed to proteolytic digestion by trypsin at 37° C. for 16 hours. The product is further conjugated with bis-biotin-DNA-SS-azide at room temperature for 30 minutes and finally exposed to DTT at 65° C. for 10 minutes.
FIGS. 5A-5C show LC-MS plots of DMSO control (FIG. 5A), Ibrutinib-yne (FIG. 5B), and Ibrutinib-yne with a DNA control molecule and DTT (FIG. 5C). The blue box represents unmodified peptide, the green box represents peptide bound to Ibrutinib-yne, and the red box represents peptide-Ibrutinib-yne-DNA adduct following disulfide reduction.
Using the steps of Example 1, EGFR kinase was detected using activity-based protein fingerprinting. The commercially available drug analog Ibrutinib-yne, which binds to the catalytic cysteine of EGFR comprises an electrophilic warhead and an alkyne moiety for the CLICK handle processing step. Purified human EGFR kinase was generated (FIG. 2A) and exposed to Ibrutinib-yne (FIG. 2B). […] The target peptide detected by this protocol LLGIC(Alk)[…]) (SEQ ID NO:1) was detected by LC-MS (FIGS. 5A-5C).

In the case of Ibrutinib-yne, the “LC-MS detection of target peptide LLGIC(Alk)[…] (SEQ ID NO:1)” value (after TCEP/chloroacetamide capping and trypsin digestion, vs DMSO control) was “detected only in its modified state” and the “probe-EGFR kinase complex observed by Coomassie Blue staining and fluorescent imaging (AF647-azide)” value (probe or DMSO control incubated with EGFR at 37° C. for 1 hour, PAGE) was “desired complex was observed; also recorded: only the protein bearing Ibrutinib-yne reacted with AF647-azide”.
